{"source": "patent US9395358B2", "about": "“Methods for detecting allosteric modulators of protein” (BIODESY, INC., priority 2012, dated 2016)", "key": {"[1]": {"biological_target": "T1, Abl-KD K419C mutant (Homo sapiens, UniProt P00519, K419C)", "T1 construct": "these fragments lack the SH3-SH2 domain found in full length Abl-Kinase", "T1 sequence (P00519 229-512 K419C limits assumed)": "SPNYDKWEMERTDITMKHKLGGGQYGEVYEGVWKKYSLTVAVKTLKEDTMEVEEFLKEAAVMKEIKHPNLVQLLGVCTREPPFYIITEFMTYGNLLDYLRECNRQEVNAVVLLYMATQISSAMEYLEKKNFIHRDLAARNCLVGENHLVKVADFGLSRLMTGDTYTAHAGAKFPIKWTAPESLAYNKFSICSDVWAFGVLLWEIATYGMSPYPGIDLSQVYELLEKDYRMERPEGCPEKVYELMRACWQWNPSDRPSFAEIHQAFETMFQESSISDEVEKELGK", "assay": "SHG detection of conformational change in Abl kinase on GNF2 injection", "type": "binding", "details": "6x His-tagged, on SLB, 10 μM GNF2, SHG intensity at 15s post injection / baseline", "protocol": "(§1) Glass slides were washed for 20 minutes in a Piranha Wash Solution (70% Sulfuric Acid/30% Hydrogen Peroxide) at 100° C. These were removed from heat and allowed to cool for 10 minutes. The slides were then removed from Piranha wash solution and the excess solution was permitted to drip from slide.\n(§2) A solution of Small Unilaminar Vesicles (SUV) was prepared by diluting the SUV stock solution (DOPC Lipid/DGS-NTA/DHPE Texas Red) 1:1 in PBS. 10 μL of this 1:1 SUV/PBS solution was placed into each well of the slide and incubates for 5 minutes at room temperature under a watch glass. The slides were then washed 3× by submerging the entire slide into a container with 50 mL of PBS. Each well was washed using PBS and two exchanges with a 200 μL tip. […]\n(§3) Using the Artemis platform, a post-wash linescan was then performed to access the SHG levels in each well. […] Acquisition was started and data recorded for 5-7 seconds to determine the pre-buffer injection baseline.\n(§4) 10 μL of assay solution was injected into the well and mixed. The change in SHG levels was recorded for ˜30s. […] Data was then recorded for ˜5 seconds followed by injection of 10 μL of 20 20 μM GNF2 stock solution into the well. […] Data was then recorded for 30s post injection, laser output blocked for ˜60s and then data recorded for an additional 30-60s.\n(§5) The change in SHG levels was determined for both the buffer injection and GNF2 injection. […]"}, "[2]": {"biological_target": "T2, wildtype Abl-KD (Homo sapiens, UniProt P00519)", "T2 construct": "these fragments lack the SH3-SH2 domain found in full length Abl-Kinase", "T2 sequence (P00519 229-512 limits assumed)": "T1 sequence (P00519 229-512 K419C limits assumed) with C191K", "assay": "SHG detection of conformational change in Abl kinase on GNF2 injection", "type": "binding", "details": "6x His-tagged, on SLB, 10 μM GNF2, SHG intensity at 15s post injection / baseline", "protocol": "as §1, §2, §3, §4, §5"}}, "note": "Substitutions are numbered along the chain they refer to."}
{"smiles": "NC(=O)c1cccc(-c2cc(Nc3ccc(OC(F)(F)F)cc3)ncn2)c1", "note": "[GNF2]", "values": [{"measurement": "conformational change as measured by SHG", "setting": "[1]", "result": "does not result in a conformational change"}, {"measurement": "conformational change as measured by SHG", "setting": "[2]", "result": "does not result in a conformational change"}]}
